Converted amounts (≈) assume the structure as drawn. The source made the active and inactive calls. The calls are words filed in the database; no cut-off is given here. Peptide text beside a SMILES is read from it.
Legend:
[1] = test system: Staphylococcus aureus; experiment: Antimicrobial activity against vancomycin resistant Staphylococcus aureus IS 08032810, incubated for 16 to 18 hrs by fluorescence microplate reader analysis; assay type: functional; settings: time 16-18 hrs
[2] = test system: Staphylococcus epidermidis; experiment: Antimicrobial activity against Staphylococcus epidermidis IS 08032706 incubated for 16 to 18 hrs by fluorescence microplate reader analysis; assay type: functional; settings: time 16-18 hrs
[3] = test system: Stenotrophomonas maltophilia; experiment: Antimicrobial activity against Stenotrophomonas maltophilia IS 090223 incubated for 16 to 18 hrs by fluorescence microplate reader analysis; assay type: functional; settings: time 16-18 hrs
[4] = test system: Enterococcus faecium; experiment: Antimicrobial activity against Enterococcus faecium IS 1299 incubated for 16 to 18 hrs by fluorescence microplate reader analysis; assay type: functional; settings: time 16-18 hrs
[5] = test system: Escherichia coli; experiment: Antimicrobial activity against Escherichia coli IS 08032813 incubated for 16 to 18 hrs by fluorescence microplate reader analysis; assay type: functional; settings: time 16-18 hrs
[6] = test system: Klebsiella pneumoniae; experiment: Antimicrobial activity against Klebsiella pneumoniae IS 08B343 incubated for 16 to 18 hrs by fluorescence microplate reader analysis; assay type: functional; settings: time 16-18 hrs
[7] = test system: Klebsiella pneumoniae; experiment: Antimicrobial activity against Klebsiella pneumoniae IS 1400 incubated for 16 to 18 hrs by fluorescence microplate reader analysis; assay type: functional; settings: time 16-18 hrs
[8] = test system: Candida albicans; experiment: Antimicrobial activity against Candida albicans IS 08030401 incubated for 16 to 18 hrs by fluorescence microplate reader analysis; assay type: functional; settings: time 16-18 hrs
[9] = test system: Candida albicans; experiment: Antimicrobial activity against Candida albicans IS 08022821 incubated for 16 to 18 hrs by fluorescence microplate reader analysis; assay type: functional; settings: time 16-18 hrs
[10] = test system: Macrophage; experiment: Immunomodulatory activity in mouse peritoneal macrophage assessed as increase in MCP-1 level at 20 microg/ml measured after 24 hrs by ELISA; assay type: functional, tissue-based; settings: dose 20.0 µg/ml
[11] = test system: Macrophage; experiment: Immunomodulatory activity in mouse peritoneal macrophage assessed as inhibition of LPS-induced TNF-alpha level measured after 24 hrs by ELISA; assay type: functional, tissue-based; settings: dose 5-20 µg/ml
[12] = test system: Staphylococcus aureus; experiment: In vivo antibacterial activity against vancomycin resistant Staphylococcus aureus infected in kunming mouse assessed as reduction in bacterial load in peritoneum at 10 mg/kg, ip measured 18 hrs after infection; assay type: functional, organism-based
[13] = test system: Staphylococcus aureus; experiment: In vivo antibacterial activity against vancomycin resistant Staphylococcus aureus infected in kunming mouse assessed as reduction in bacterial load in peritoneal lavage at 10 mg/kg, ip administered 4 hrs after infection; assay type: functional, organism-based
[14] = test system: Staphylococcus aureus; experiment: In vivo antibacterial activity against vancomycin resistant Staphylococcus aureus infected in kunming mouse assessed as reduction in bacterial load in spleen at 10 mg/kg, ip administered 4 hrs after infection; assay type: functional, organism-based
[15] = test system: Staphylococcus aureus; experiment: In vivo antibacterial activity against vancomycin resistant Staphylococcus aureus infected in macrophage/monocyte deficient kunming mouse assessed as bacterial load in peritoneal lavage at 10 mg/kg, ip administered 24 hrs before infection; assay type: functional, organism-based
[16] = test system: Staphylococcus aureus; experiment: In vivo antibacterial activity against vancomycin resistant Staphylococcus aureus infected in neutropenic kunming mouse model assessed as bacterial load in peritoneal lavage at 10 mg/kg, ip administered 24 hrs before infection; assay type: functional, organism-based
[17] = test system: Staphylococcus aureus; experiment: In vivo antibacterial activity against vancomycin resistant Staphylococcus aureus infected in neutropenic kunming mouse model assessed as survival rate at 10 mg/kg, ip administered 24 hrs before infection; assay type: functional, organism-based
[18] = test system: Escherichia coli; experiment: Antibiofilm activity against Escherichia coli assessed as biofilm eradication at BIC-5 by XTT and crystal violet staining assay relative to control; assay type: functional
[19] = test system: Klebsiella oxytoca; experiment: Antibiofilm activity against Klebsiella oxytoca assessed as biofilm eradication at BIC-5 by XTT and crystal violet staining assay relative to control; assay type: functional
[20] = test system: Candida albicans; experiment: Antibiofilm activity against Candida albicans assessed as biofilm eradication at BIC-5 by XTT and crystal violet staining assay relative to control; assay type: functional
[21] = test system: Neutrophil; experiment: Immunomodulatory activity in neutrophils (unknown origin) assessed as inhibition of LPS-induced TNF-alpha level at 5 to 20 ug/ml by ELISA; assay type: functional, cell-based; settings: dose 5-20 µg/ml
[22] = test system: Neutrophil; experiment: Immunomodulatory activity in neutrophils (unknown origin) assessed as increase in MCP-1 level at 20 ug/ml measured after 12 hrs by ELISA; assay type: functional, cell-based; settings: dose 20.0 µg/ml
[23] = test system: Neutrophil; experiment: Immunomodulatory activity in neutrophils (unknown origin) assessed as increase in CXCL1/KC level at 20 ug/ml measured after 12 hrs by ELISA; assay type: functional, cell-based; settings: dose 20.0 µg/ml
[24] = test system: Neutrophil; experiment: Immunomodulatory activity in neutrophils (unknown origin) assessed as effect on IL-6 level at 20 ug/ml measured after 12 hrs by ELISA; assay type: functional, cell-based; settings: dose 20.0 µg/ml
[25] = test system: Mus musculus; experiment: Immunomodulatory activity in Kunming mouse infected with vancomycin-resistant Staphylococcus aureus assessed as decreased in IL-6 level in peritoneal lavage at 10 mg/kg, ip administered 24 hrs before infection by ELISA; assay type: functional, organism-based
[26] = test system: Mus musculus; experiment: Immunomodulatory activity in Kunming mouse infected with vancomycin-resistant Staphylococcus aureus assessed as increased in CXCL1/KC level in peritoneal lavage at 10 mg/kg, ip administered 24 hrs before infection by ELISA; assay type: functional, organism-based
[27] = test system: Mus musculus; experiment: Immunomodulatory activity in Kunming mouse infected with vancomycin-resistant Staphylococcus aureus assessed as decreased in IL-1beta level in peritoneal lavage at 10 mg/kg, ip administered 4 hrs after infection by ELISA; assay type: functional, organism-based
[28] = test system: Mus musculus; experiment: Immunomodulatory activity in Kunming mouse infected with vancomycin-resistant Staphylococcus aureus assessed as increased in IL-10 level in peritoneal lavage at 10 mg/kg, ip administered 4 hrs after infection by ELISA; assay type: functional, organism-based
[29] = test system: Mus musculus; experiment: Immunomodulatory activity in Kunming mouse infected with vancomycin-resistant Staphylococcus aureus assessed as increased in CXCL1/KC level in peritoneal lavage at 10 mg/kg, ip administered 4 hrs after infection by ELISA; assay type: functional, organism-based
[30] = Toxicity in Kunming mouse assessed as effect on CXCL1/KC levels at 10 mg/kg, ip measured after 5 hrs by ELISA; assay type: organism-based; settings: in vivo
[31] = Toxicity in Kunming mouse assessed as effect on IL-10 levels at 10 mg/kg, ip measured after 5 hrs by ELISA; assay type: organism-based; settings: in vivo
[32] = Toxicity in Kunming mouse assessed as effect on IL-6 levels at 10 mg/kg, ip measured after 5 hrs by ELISA; assay type: organism-based; settings: in vivo
[33] = test system: Mus musculus; experiment: Immunomodulatory activity in mouse assessed as increase number of neutrophil in peritoneal cavity at 10 mg/kg, ip measured after 5 to 24 hrs by flow cytometry; assay type: functional, organism-based; settings: time 5-24 hrs
[34] = test system: Mus musculus; experiment: Immunomodulatory activity in Kunming mouse infected with vancomycin-resistant Staphylococcus aureus assessed as effect number of inflammatory macrophages in peritoneal cavity at 10 mg/kg, ip measured upto 24 hrs by flow cytometry; assay type: functional, organism-based; settings: time hrs <=24
[35] = test system: Mus musculus; experiment: Immunomodulatory activity in Kunming mouse infected with vancomycin-resistant Staphylococcus aureus assessed as effect number of neutrophil in peritoneal cavity at 10 mg/kg, ip measured upto 24 hrs by flow cytometry; assay type: functional, organism-based; settings: time hrs <=24
[36] = test system: Macrophage; experiment: Induction of ROS production in mouse peritoneal macrophage by fluorescence assay; assay type: functional, tissue-based; settings: dose 10-40 µg/ml
[37] = test system: LAD2; experiment: Cytotoxicity against human LAD2 cells assessed as mast cell degranulation at 100 ug/ml relative to control; assay type: cell-based; settings: at 100 µg/mL
[38] = test system: Staphylococcus aureus; experiment: Antibacterial activity against vancomycin-resistant Staphylococcus aureus assessed as bacterial growth inhibition in presence of 50 mmol NaCl; assay type: functional
[39] = test system: Staphylococcus aureus; experiment: Antibacterial activity against vancomycin-resistant Staphylococcus aureus assessed as bacterial growth inhibition in presence of 80% human serum incubated upto 8 hrs; assay type: functional; settings: time hrs <=8

CC[C@H](C)[C@H](NC(=O)[C@@H]1CCCN1C(=O)[C@@H](NC(=O)[C@@H](NC(=O)CNC(=O)CNC(=O)[C@@H](NC(=O)[C@H](Cc1ccccc1)NC(=O)[C@@H](NC(=O)[C@H](CCCCN)NC(=O)[C@@H](NC(=O)[C@H](CCCCN)NC(=O)[C@H](CCCCN)NC(=O)[C@H](Cc1ccccc1)NC(=O)[C@@H](NC(=O)[C@H](CCCCN)NC(=O)[C@H](CCCNC(=N)N)NC(=O)[C@H](Cc1ccccc1)NC(=O)CNC(=O)[C@H](CCCCN)NC(=O)[C@H](CCCCN)NC(=O)[C@@H](NC(=O)[C@H](CCCCN)NC(=O)[C@H](CCCNC(=N)N)NC(=O)[C@H](Cc1ccccc1)NC(=O)[C@H](Cc1ccccc1)NC(=O)[C@H](CCCCN)NC(=O)[C@H](CCCCN)NC(=O)[C@H](Cc1ccccc1)NC(=O)[C@H](CCCNC(=N)N)NC(=O)[C@@H](N)CCCCN)[C@@H](C)CC)[C@@H](C)CC)[C@@H](C)O)[C@@H](C)CC)[C@@H](C)CC)[C@@H](C)O)[C@@H](C)CC)C(=O)O (H-KRFKKFFRKIKKGFRKIFKKTKIFIGGTIPI-OH)
MIC [1]: 1.17 µg/mL (≈ 0.308 µM) | MIC [2]: 1.17 µg/mL (≈ 0.308 µM) | MIC [3]: 1.17 µg/mL (≈ 0.308 µM) | MIC [4]: 1.17 µg/mL (≈ 0.308 µM) | MIC [5]: 1.17 µg/mL (≈ 0.308 µM) | MIC [6]: 1.17 µg/mL (≈ 0.308 µM) | MIC [7]: 1.17 µg/mL (≈ 0.308 µM) | MIC [8]: 1.17 µg/mL (≈ 0.308 µM) | MIC [9]: 1.17 µg/mL (≈ 0.308 µM) | inhibition [10]: Active | inhibition [11]: Dose-dependent effect | Activity [12]: Active | Activity [13]: Active | Activity [14]: Active | Activity [15]: inactive | Activity [16]: inactive | Activity [17]: inactive | Activity [18]: 65.98% | Activity [19]: 75.31% | Activity [20]: 38.69% | inhibition [21]: Active | Activity [22]: Active | Activity [23]: Active | Activity [24]: inactive | Activity [25]: Active | Activity [26]: Active | Activity [27]: Active | Activity [28]: Active | Activity [29]: Active | Activity [30]: Non-Toxic | Activity [31]: Non-Toxic | Activity [32]: Non-Toxic | Activity [33]: Active | Activity [34]: inactive | Activity [35]: inactive | Activity [36]: Dose-dependent effect | Activity [37]: 10.97% | MIC [38]: 4.69 µg/mL | MIC [39]: 25 µg/mL

Reference: ChEMBL document CHEMBL4715817, “Python Cathelicidin CATHPb1 Protects against Multidrug-Resistant Staphylococcal Infections by Antimicrobial-Immunomodulatory Duality” (J Med Chem, 2018)
